Measured values: the supplement of paper PMC10307832

Assays:
Assay in all cases: relative viability (nuclei count vs DMSO), 5 days (fraction); higher = more cells survive
AZ505 + Bortezomib = compound: C1CCC(CC1)N(CCNCCC2=C3C(=C(C=C2)O)NC(=O)CO3)C(=O)CCNCCC4=CC(=C(C=C4)Cl)Cl [AZ505] + CC(C)C[C@H](NC(=O)[C@H](Cc1ccccc1)NC(=O)c1cnccn1)B(O)O [Bortezomib] (partner 0.002 µM)
Summary of the method: (§1)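 Values are medians from duplicate plates. Each reflects relative viability, defined as the nuclei count of treated wells over that of vehicle wells. Lung cancer cell lines in 1536-well plates were pin-tool dosed one day after seeding with one drug alone or with a fixed anchor-drug dose plus five library-drug doses (not always all listed) in √10 steps, then fixed, stained and imaged at 4× after 5 days.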

AZ505 + Pictilisib = compound: C1CCC(CC1)N(CCNCCC2=C3C(=C(C=C2)O)NC(=O)CO3)C(=O)CCNCCC4=CC(=C(C=C4)Cl)Cl [AZ505] + CS(=O)(=O)N1CCN(Cc2cc3nc(-c4cccc5[nH]ncc45)nc(N4CCOCC4)c3s2)CC1 [Pictilisib] (partner 1 µM)
Summary of the method: as §1

AZ505 + Olaparib = compound: C1CCC(CC1)N(CCNCCC2=C3C(=C(C=C2)O)NC(=O)CO3)C(=O)CCNCCC4=CC(=C(C=C4)Cl)Cl [AZ505] + O=C(c1cc(Cc2n[nH]c(=O)c3ccccc23)ccc1F)N1CCN(C(=O)C2CC2)CC1 [Olaparib] (partner 8 µM)
Summary of the method: as §1

Dactolisib + Dasatinib = compound: Cn1c(=O)n(-c2ccc(C(C)(C)C#N)cc2)c2c3cc(-c4cnc5ccccc5c4)ccc3ncc21 [Dactolisib] + Cc1nc(Nc2ncc(C(=O)Nc3c(C)cccc3Cl)s2)cc(N2CCN(CCO)CC2)n1 [Dasatinib] (partner 0.075 µM)
Summary of the method: as §1

Row | Cell Line | relative viability (AZ505 + Bortezomib; first compound 0.08 µM) | relative viability (AZ505 + Bortezomib; first compound 0.253 µM) | relative viability (AZ505 + Bortezomib; first compound 0.8 µM) | relative viability (AZ505 + Bortezomib; first compound 2.53 µM) | relative viability (AZ505 + Bortezomib; first compound 8 µM) | relative viability (AZ505 + Pictilisib; first compound 0.08 µM) | relative viability (AZ505 + Pictilisib; first compound 0.253 µM) | relative viability (AZ505 + Pictilisib; first compound 0.8 µM) | relative viability (AZ505 + Pictilisib; first compound 2.53 µM) | relative viability (AZ505 + Pictilisib; first compound 8 µM) | relative viability (AZ505 + Olaparib; first compound 0.08 µM) | relative viability (AZ505 + Olaparib; first compound 0.8 µM) | relative viability (AZ505 + Olaparib; first compound 2.53 µM) | relative viability (AZ505 + Olaparib; first compound 8 µM) | relative viability (Dactolisib + Dasatinib; first compound 0.002 µM) | relative viability (Dactolisib + Dasatinib; first compound 0.006325 µM) | relative viability (Dactolisib + Dasatinib; first compound 0.02 µM) | relative viability (Dactolisib + Dasatinib; first compound 0.06325 µM) | relative viability (Dactolisib + Dasatinib; first compound 0.2 µM) | relative viability (AZ505 + Olaparib; first compound 0.253 µM)
1 | HARA | 1.04 | 1.01 | 0.914 | 1.03 | 0.916 | 0.267 | 0.399 | 0.287 | 0.228 | 0.264 | 0.451 | 0.734 | 0.631 | 0.761 | 0.273 | 0.25 | 0.213 | 0.292 | 0.127 | –
2 | HCC-15 | 0.973 | 1.08 | 1.01 | 0.989 | 1.02 | 0.658 | 0.657 | 0.712 | 0.462 | 0.71 | 0.639 | 0.75 | 0.73 | 0.736 | 0.609 | 0.559 | 0.499 | 0.319 | 0.229 | 0.723
3 | LCLC-97TM1 | 0.579 | 0.461 | 0.461 | – | 1.08 | 0.233 | 0.171 | 0.273 | 0.144 | 0.15 | 0.326 | 0.369 | – | 0.595 | 0.811 | 0.85 | 0.858 | 0.853 | 0.741 | 0.471
4 | RERF-LC-KJ | 1.02 | 1.02 | 1.18 | 1.09 | 1.12 | 0.578 | 0.591 | 0.448 | 0.565 | 0.666 | 0.947 | 0.995 | 0.91 | 0.842 | 0.99 | 0.747 | 0.69 | 0.347 | 0.311 | 0.934
5 | NCI-H1651 | 0.882 | 0.956 | 0.909 | 0.927 | 1.03 | 0.656 | 0.56 | 0.603 | 0.633 | 0.588 | 0.182 | 0.179 | 0.185 | 0.186 | 0.388 | 0.435 | 0.318 | 0.238 | 0.177 | 0.19
6 | NCI-H2023 | 0.845 | 0.872 | 0.911 | 1.18 | 1.01 | 0.249 | 0.17 | 0.197 | 0.264 | 0.223 | 0.414 | 0.499 | 0.471 | 0.43 | 0.487 | 0.454 | 0.376 | 0.0921 | 0.0851 | 0.496
7 | LC-2-ad | 1 | 1.04 | 0.915 | 1.01 | 1.03 | 0.427 | 0.422 | 0.465 | 0.515 | 0.508 | 0.683 | 0.648 | 0.713 | 0.741 | 0.495 | 0.486 | 0.491 | 0.349 | 0.297 | 0.696
8 | NCI-H1437 | 0.551 | 0.453 | 0.49 | 0.405 | 0.743 | 0.46 | 0.424 | 0.599 | 0.415 | 0.404 | 0.623 | 0.632 | 0.595 | 0.637 | 0.378 | 0.426 | 0.378 | 0.358 | 0.227 | 0.623
